Literature values in patent publication US3959464A, “Microencapsulated methyl and ethyl parathion insecticide in aqueous carrier” (Pennwalt Corporation, priority 1971, dated 1976).

Legend:
[1] = system: insects; conditions: ordinary methods of application
[2] = system: food crops; conditions: unmodified, unencapsulated
[3] = for effect of moisture (hydrolysis): contacted by moisture; for degradation in the field: hydrolysis and oxidation reactions

SMILES	period of pesticidal effectiveness in the field [1]	phytotoxicity [2]	effect of moisture (hydrolysis) [3]	degradation in the field [3]
CCOP(=S)(OCC)Oc1ccc([N+](=O)[O-])cc1 [ethyl parathion, O,O-diethyl-O-p-nitrophenol phosphorothioate]	only several days	chemical phytotoxicity to various food crops	rendered ineffectual by hydrolysis when contacted by moisture	rapid degradation in the field
COP(=S)(OC)Oc1ccc([N+](=O)[O-])cc1 [methyl parathion, O,O-dimethyl-O-p-nitrophenol phosphorothioate]	only several days	chemical phytotoxicity to various food crops	rendered ineffectual by hydrolysis when contacted by moisture	rapid degradation in the field
